# Measured values published in patent US4499299A, “Pharmaceutically active phenylcarboxylic acid derivatives” (ICI Americas Inc., priority 1981, dated 1985).
# Tested on: isolated guinea pig trachea contracted by leukotriene C4 or D4 (SRS-A)
# Test: Antagonism of leukotriene C4 or D4 induced contractions of isolated guinea pig trachea (SRS-A antagonist test)
# Assay type: cell-based
# Conditions: inhibition of contraction induced by 8×10^-9 M LTD4 or LTC4, isolated guinea pig tracheal strip, indomethacin 5×10^-6 M present
# Description: Male Hartley guinea pigs weighing 300-500 g are killed and exsanguinated. The trachea is immediately resected, cleaned of adhering connective tissue and cut into a spiral strip measuring approximately 3 to 5 mm ×20 to 25 mm. The strip is mounted in a 10 ml jacketed tissue bath by tying one end to a tissue hook and the opposite end to a Grass FT03C force-displacement transducer connected to an 8-channel Beckman Polygraph for recording contractile or relaxant responses. The tissue is bathed in modified Krebs' solution (37.5° C.) of the following composition (mM): NaCl, 119; KCl, 4.6; CaCl2, 1.8; MgCl2, 0.5; NaHCO3, 24.9; NaH2 PO4, 1.0; glucose, 11.1. Indomethacin, a cyclooxygenase inhibitor, is also present in a concentration of 5×10^-6 M. The tissue baths are constantly aerated with 95% O2 and 5% CO2. Tissues are placed under a passive tension of 2 g and allowed a 50 minute equilibration period before beginning experiments. This technique is standard for studying the effects of drugs on airway smooth muscle (Krell, R. D., J. Pharmacol. Exp. Ther. 211: 436, 1979; Kneussel, M. P. and Richardson, J. B., J. Appl. Physiol. 45: 307, 1978; Fleisch, J. H. and Calkins, P. J., J. Appl. Physiol. 41: 62, 1976).
# Tissues are set up in groups of eight--four are used as time/vehicle controls and the remaining four for experimental compounds. No fewer than 4 tissues are used for each test compound. All tissues are exposed to 8×10^-9 M LTD4, following the 50 minute equilibration period, and the response recorded. This concentration of LTD4 is that which produces a contraction equal to about 70-80% of the maximal effect of the agonist in this tissue. The LTD4 is washed out for 20-25 minutes and the procedure repeated twice to insure that reproducible responses are being obtained with LTD4. LTC4, at a concentration of 8×10^-9 M, may be substituted for LTD4 in the same procedure.
# Once tissue reproducibility has been established test compounds are added to four baths following the […] washout period. After a 10 minute incubation with test compound or vehicle 8×10^-9 M LT's are added and the response recorded. Percent inhibition by the test compound or percent change in vehicle controls is calculated, for each tissue, according to the following equation: % inhibition=100 multiplied by (mg tension increase of preceding response minus mg tension increase in presence of compound) divided by mg tension increase of preceding response. The means of the percent changes for vehicle controls and test compound are calculated and evaluated for significant differences by Students' t-test for unpaired data. Tissues exposed to agents were retested for responsiveness to LTD4 or C4 following a 25 minute washout period. […]
row,SMILES,activity as an SRS-A antagonist
1,"CCCc1c(OCc2ccc(C(=O)O)cc2OC)ccc(C(C)=O)c1O [Example 4, 3-Methoxy-4-(4-acetyl-3-hydroxy-2-propylphenoxy)methylbenzoic acid]",Particularly active
2,"CCCc1c(OCc2ccc(OCC(=O)O)cc2)ccc(C(C)=O)c1O [Example 7, 4-(4-Acetyl-3-hydroxy-2-propylphenoxy)methylphenoxyacetic acid]",Particularly active
3,"CCCc1c(OCc2ccc(/C=C/C(=O)O)cc2)ccc(C(C)=O)c1O [Example 16, 4-(4-Acetyl-3-hydroxy-2-propylphenoxy)methylcinnamic acid]",Particularly active
4,"CCCc1c(OCc2ccc(C=CC(=O)O)cc2OC)ccc(C(C)=O)c1O [Example 22, 3-Methoxy-4-(4-acetyl-3-hydroxy-2-propylphenoxy)methylcinnamic acid]",Particularly active
